The source of these data is patent US20210269434A1, “TRICYCLIC COMPOUNDS AS INHIBITORS OF KRAS” (Incyte Corporation, priority 2020, published 2021).

One test addresses KRAS G12C (Homo sapiens, UniProt P01116, G12C). Nature of the test: GDP-GTP exchange assay (KRAS_G12C exchange). In kind it is biochemical. To be noted: bodipy-GDP loaded KRAS G12C 2.5 nM, SOS1 150 nM, GppNHp; 2 hours pre-incubation, 2 hours reaction; read-out: G12C_exchange. As for the experimental part: Example A. GDP-GTP Exchange Assay
The inhibitor potency of the exemplified compounds was determined in a fluorescence based guanine nucleotide exchange assay, which measures the exchange of bodipy-GDP (fluorescently labeled GDP) for GppNHp (Non-hydrolyzable GTP analog) to generate the active state of KRAS in the presence of SOS1 (guanine nucleotide exchange factor). Inhibitors were serially diluted in DMSO and a volume of 0.1 μL was transferred to the wells of a black low volume 384-well plate. 5 μL/well volume of bodipy-loaded KRAS G12C diluted to 5 nM in assay buffer (25 mM Hepes pH 7.5, 50 mM NaCl, 10 mM MgCl2 and 0.01% Brij-35) was added to the plate and pre-incubated with inhibitor for 2 hours at ambient temperature. Appropriate controls (enzyme with no inhibitor or with a G12C inhibitor (AMG-510)) were included on the plate. The exchange was initiated by the addition of a 5 μL/well volume containing 1 mM GppNHp and 300 nM SOS1 in assay buffer. The 10 μL/well reaction concentration of the bodipy-loaded KRAS G12C, GppNHp, and SOS1 were 2.5 nM, 500 uM, and 150 nM, respectively. The reaction plates were incubated at ambient temperature for 2 hours, a time estimated for complete GDP-GTP exchange in the absence of inhibitor. For the KRAS G12D and G12V mutants, similar guanine nucleotide exchange assays were used with 2.5 nM as final concentration for the bodipy loaded KRAS proteins and with 4 hours and 3 hours incubation after adding GppNHp-SOS1 mixture for G12D and G12V respectively. A cyclic peptide described to selectively bind G12D mutant (Sakamoto et al., BBRC 484.3 (2017), 605-611) or internal compounds with confirmed binding were used as positive controls in the assay plates. Fluorescence intensities were measured on a PheraStar plate reader instrument (BMG Labtech) with excitation at 485 nm and emission at 520 nm.
Either GraphPad prism or XLfit was used to analyze the data. The IC50 values were derived by fitting the data to a four parameter logistic equation producing a sigmoidal dose-response curve with a variable Hill coefficient. Prism equation: Y=Bottom+(Top−Bottom)/(1+10^((Log lC50−X)*Hill slope)); XLfit equation: Y=(A+((B−A)/(1+((X/C)^D)))) where X is the logarithm of inhibitor concentration and Y is the response.

Test [1] has as its system MIA PaCa-2 (KRAS G12C) cells. As to the kind of experiment: Cellular pERK HTRF assay (KRAS_G12C pERK). The test is classed as cell-based, human. Particulars: Homo sapiens, MIA PaCa-2, 4 hours incubation, read-out: G12C_pERK. As for the experimental part:
Example C: Cellular pERK HTRF Assay
MIA PaCa-2 (KRAS G12C; ATCC® CRL-1420), A427 (KRAS G12D; ATCC® HTB53), HPAF-II (KRAS G12D; ATCC® CRL-1997) and NCI-H838 (KRAS WT; ATCC® CRL-5844) cells are purchased from ATCC and maintained in RPMI 1640 media supplemented with 10% FBS (Gibco/Life Technologies). The cells are plated at 5000 cells per well (8 uL) into Greiner 384-well low volume, flat-bottom, tissue culture treated white plates and incubated overnight at 37° C., 5% CO2. The next morning, test compound stock solutions are diluted in media at 3× the final concentration, and 4 uL are added to the cells. The plate is mixed by gentle rotation for 30 seconds (250 rpm) at room temperature. The cells are incubated with the KRAS G12C and G12D compounds for 4 hours or 2 hours respectively at 37° C., 5% CO2.
4 uL of 4× lysis buffer with blocking reagent (1:25) (Cisbio) are added to each well and plates are rotated gently (300 rpm) for 30 minutes at room temperature. 4 uL per well of Cisbio anti Phospho-ERK 1/2 d2 is mixed with anti Phospho-ERK 1/2 Cryptate (1:1) are added to each well, mixed by rotation and incubated overnight in the dark at room temperature. Plates are read on the Pherastar plate reader at 665 nm and 620 nm wavelengths. IC50 determination is performed by fitting the curve of inhibitor percent inhibition versus the log of the inhibitor concentration using the GraphPad Prism 7 software.

KRAS G12C, sequence (P01116 1-188 isoform P01116-2 G12C): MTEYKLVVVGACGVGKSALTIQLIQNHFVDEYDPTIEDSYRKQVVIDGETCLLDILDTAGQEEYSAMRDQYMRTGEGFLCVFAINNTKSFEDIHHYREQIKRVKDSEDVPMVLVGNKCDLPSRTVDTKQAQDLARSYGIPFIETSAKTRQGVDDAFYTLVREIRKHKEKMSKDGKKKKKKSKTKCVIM

As to `C=CC(=O)N1CC[C@H](n2nnc3c(OC[C@@H]4CCCN4C)nc4c(F)c(-c5cccc(C)c5C)c(C)cc4c32)C[C@H]1CC#N` [Example 137, 2-((2S,4S)-1-acryloyl-4-(7-(2,3-dimethylphenyl)-6-fluoro-8-methyl-4-(((S)-1-methylpyrrolidin-2-yl)methoxy)-1H-[1,2,3]triazolo[4,5-c]quinolin-1-yl)piperidin-2-yl)acetonitrile], the IC50 (at KRAS G12C; in test [1]) was at most 100 nM throughout.
For `CC#CC(=O)N1CC[C@H](n2nnc3c(N4CC(N(C)C)C4)nc4c(F)c(-c5c(C)c(Cl)cc6[nH]ncc56)c(CCC#N)cc4c32)C[C@H]1CC#N` (single isomer, unassigned) [Example 231a], the IC50 (at KRAS G12C; in test [1]) was at most 100 nM in each case.
For `C=CC(=O)N1CC[C@H](n2cnc3c(N4CC(N(C)C)C4)nc4c(F)c(-c5c(C)ncc6ccccc56)c(Cl)cc4c32)C[C@H]1CC#N` [Example 269a, 2-((2S,4S)-1-acryloyl-4-(8-chloro-4-(3-(dimethylamino)azetidin-1-yl)-6-fluoro-7-(3-methylisoquinolin-4-yl)-1H-imidazo[4,5-c]quinolin-1-yl)piperidin-2-yl)acetonitrile], the IC50 (on KRAS G12C; in test [1]) was at most 100 nM in each case.
Regarding `C=CC(=O)N1CC[C@H](n2cnc3c(N4CC(N(C)C)C4)nc4c(F)c(-c5ccnc6ccccc56)c(Cl)cc4c32)C[C@H]1CC#N` (single isomer, unassigned) [Example 74a], the IC50 (at KRAS G12C; in test [1]) was at most 100 nM in each case.
With `C=CC(=O)N1C[C@H](n2cnc3c(N4CC(N(C)C)C4)nc4c(F)c(-c5cccc6ccccc56)c(Cl)cc4c32)C[C@@H]1CC#N` [Example 63, 2-((2R,4R)-1-acryloyl-4-(8-chloro-4-(3-(dimethylamino)azetidin-1-yl)-6-fluoro-7-(naphthalen-1-yl)-1H-imidazo[4,5-c]quinolin-1-yl)pyrrolidin-2-yl)acetonitrile], the IC50 (on KRAS G12C; in test [1]) was at most 100 nM in each case.
Consider `C=CC(=O)N1CCC(n2cnc3c(N4CC(C)(N(C)C)C4)nc4c(F)c(-c5cccc6cccc(Cl)c56)c(C)cc4c32)C[C@H]1CC#N` (single isomer, unassigned) [Example 221a], for which the IC50 (at KRAS G12C; in test [1]) was at most 100 nM in each case.
On to `Cc1cc2c(nc(N3CC(C)(N(C)C)C3)c3nnn([C@H]4CCN(C(=O)/C=C/CN(C)C)[C@H](CC#N)C4)c32)c(F)c1-c1cccc(Cl)c1C` [Example 105, 2-((2S,4S)-4-(7-(3-chloro-2-methylphenyl)-4-(3-(dimethylamino)-3-methylazetidin-1-yl)-6-fluoro-8-methyl-1H-[1,2,3]triazolo[4,5-c]quinolin-1-yl)-1-((E)-4-(dimethylamino)but-2-enoyl)piperidin-2-yl)acetonitrile], for which the IC50 (at KRAS G12C; in test [1]) was at most 100 nM in each case.
As to `C=CC(=O)N1CC[C@H](n2nnc3c(N4CC(N(C)C)C4)nc4c(Cl)c(-c5cccc(Cl)c5Cl)c(Cl)cc4c32)C[C@H]1CC#N` [Example 281, 2-((2S,4S)-1-acryloyl-4-(6,8-dichloro-7-(2,3-dichlorophenyl)-4-(3-(dimethylamino)azetidin-1-yl)-1H-[1,2,3]triazolo[4,5-c]quinolin-1-yl)piperidin-2-yl)acetonitrile], the IC50 (on KRAS G12C; in test [1]) was at most 100 nM throughout.
Turning to `COC/C=C/C(=O)N1CC[C@H](n2nnc3c(N4CC(C)(N(C)C)C4)nc4c(F)c(-c5c(C)c(Cl)cc6[nH]ncc56)c(C)cc4c32)C[C@H]1CC#N` [Example 195a, 2-((2S,4S)-4-(7-(6-chloro-5-methyl-1H-indazol-4-yl)-4-(3-(dimethylamino)-3-methylazetidin-1-yl)-6-fluoro-8-methyl-1H-[1,2,3]triazolo[4,5-c]quinolin-1-yl)-1-((E)-4-methoxybut-2-enoyl)piperidin-2-yl)acetonitrile], the IC50 (at KRAS G12C; in test [1]) was at most 100 nM each time.
In the case of `C=CC(=O)N1CC[C@H](n2cnc3c(N4CC(N(C)C)C4)nc4c(F)c(-c5c(OC)ccc6ccccc56)c(Cl)cc4c32)C[C@H]1CC#N` [Example 66, 2-((2S,4S)-1-acryloyl-4-(8-chloro-4-(3-(dimethylamino)azetidin-1-yl)-6-fluoro-7-(2-methoxynaphthalen-1-yl)-1H-imidazo[4,5-c]quinolin-1-yl)piperidin-2-yl)acetonitrile], the IC50 (at KRAS G12C; in test [1]) was at most 100 nM in each case.
On to `COC/C=C/C(=O)N1CC[C@H](n2nnc3c(OC[C@@H]4CCCN4C)nc4c(F)c(-c5ccccc5C(F)(F)F)c(C)cc4c32)C[C@H]1CC#N` (single isomer, unassigned) [Example 157a], for which the IC50 (on KRAS G12C; in test [1]) was at most 100 nM throughout.
Regarding `Cc1nccn1-c1nc2c(F)c(-c3ccc(F)cc3)c(Cl)cc2c2c1ncn2[C@H]1CCN(C(=O)/C=C/CN(C)C)[C@H](CC#N)C1` [Example 124, 2-((2S,4S)-4-(8-chloro-6-fluoro-7-(4-fluorophenyl)-4-(2-methyl-1H-imidazol-1-yl)-1H-imidazo[4,5-c]quinolin-1-yl)-1-((E)-4-(dimethylamino)-but-2-enoyl)piperidin-2-yl)acetonitrile], the IC50 (on KRAS G12C; in test [1]) was at most 100 nM each time.
`C=CC(=O)N1CC[C@H](n2nnc3c(N4CC(N(C)C)C4)nc4c(F)c(-c5cccc(C)c5C)c(C)cc4c32)C[C@H]1CC#N` [Example 147, 2-((2S,4S)-1-acryloyl-4-(4-(3-(dimethylamino)azetidin-1-yl)-7-(2,3-dimethylphenyl)-6-fluoro-8-methyl-1H-[1,2,3]triazolo[4,5-c]quinolin-1-yl)piperidin-2-yl)acetonitrile]: the IC50 (on KRAS G12C; in test [1]) was at most 100 nM in each case.
As for `CC#CC(=O)N1CC[C@H](n2nnc3c(OC[C@@H]4CCCN4C)nc4c(Cl)c(-c5ccc(F)c6cccnc56)c(Cl)cc4c32)C[C@H]1CC#N` (single isomer, unassigned) [Example 270a], the IC50 (at KRAS G12C; in test [1]) was at most 100 nM each time.
In the case of `C=CC(=O)N1CC(n2c(=O)[nH]c3c(=O)n(-c4ccccc4)c4nc(-c5cc(O)cc6ccccc56)c(F)cc4c32)C1` [Example 28, 1-(1-acryloylazetidin-3-yl)-8-fluoro-7-(3-hydroxynaphthalen-1-yl)-5-phenyl-3,5-dihydro-1H-imidazo[4,5-c][1,8]naphthyridine-2,4-dione], on KRAS G12C, the IC50 fell in the range of 100 to 1000 nM.
The same measure, in the same setting: for `C=CC(=O)N1CCC(n2cnc3c(OC[C@@H]4CCCN4C)nc4c(F)c(-c5cccc(O)c5F)c(Cl)cc4c32)CC1` (single isomer, unassigned) [Example 3a] the value was 1000 to 5000 nM.
On to `C=CC(=O)N1CCC(n2cnc3c(OCc4ccnn4C)nc4c(F)c(-c5cc(O)cc6ccccc56)c(Cl)cc4c32)CC1` [Example 8, 1-(4-(8-chloro-6-fluoro-7-(3-hydroxynaphthalen-1-yl)-4-((1-methyl-1H-pyrazol-5-yl)methoxy)-1H-imidazo[4,5-c]quinolin-1-yl)piperidin-1-yl)prop-2-en-1-one], for which the IC50 on KRAS G12C fell in the range of 100 to 1000 nM.
